Results: DBAASP
≈ marks a conversion by molar mass, not a printed value. Where “and” joins values, the source holds several entries; their conditions need not be identical. Identical values can stand only once.

Tests used:
Assay in all cases: ≥ marks a high value that may be exact or a test limit, other limits are often not marked, values filed in µg/mL are converted to µM
Enterococcus gallinarum = system: Enterococcus gallinarum
[1] = system: Bacillus subtilis KCTC 3038
Staphylococcus aureus = system: Staphylococcus aureus
[2] = system: Escherichia coli ATCC 27325
[3] = system: Salmonella typhimurium KCTC 2370
Enterococcus faecium = system: Enterococcus faecium
[4] = system: Enterococcus faecalis ATCC 29212
[5] = system: Saccharomyces cerevisiae ATCC 44774
[6] = system: Enterococcus casseliflavus
Methylobacterium sp. = system: Methylobacterium sp.
Xanthomonas citri = system: Xanthomonas citri
[7] = system: Sinorhizobium meliloti USDA 1002
[8] = system: Streptococcus pneumoniae DSM 11865
[9] = system: Pseudomonas aeruginosa DSM 1128
[10] = system: Klebsiella pneumoniae DSM 681
[11] = system: Staphylococcus aureus ATCC 25923
[12] = system: Escherichia coli DSM 1103

CC(C)[C@H](NC(=O)[C@H](CCCCN)NC(=O)[C@H](CCC(N)=O)NC(=O)[C@H](CCCCN)NC(=O)[C@@H](NC(=O)[C@@H](NC(=O)[C@H](CCC(N)=O)NC(=O)[C@@H](NC(=O)[C@@H](NC(=O)[C@@H]1CCCN1C(=O)[C@H](CCCN=C(N)N)NC(=O)[C@@H](NC(=O)[C@@H](NC(=O)[C@@H](N)CCCN=C(N)N)C(C)C)C(C)C)C(C)C)C(C)C)C(C)C)C(C)C)C(=O)N[C@@H](CCCN=C(N)N)C(=O)O [RVVRPVVQVVKQKVR]
MIC (Enterococcus gallinarum): ≥ 35.8 µM | MIC [1]: 8.94 µM (≈ 16 µg/mL) | MIC (Staphylococcus aureus): > 35.8 µM | MIC [2]: 17.9 µM and ≥ 35.8 µM | MIC [3]: ≥ 35.8 µM | MIC (Enterococcus faecium): 2.23 µM (≈ 4 µg/mL) | MIC [4]: 4.47 µM (≈ 8 µg/mL) | MIC [5]: 1.12 µM (≈ 2 µg/mL) | MIC [6]: 1.12 µM (≈ 2 µg/mL)

CC[C@H](C)[C@H](NC(=O)[C@H](C)NC(=O)CNC(=O)[C@H](Cc1ccccc1)NC(=O)[C@@H](NC(=O)[C@@H](N)CCCCN)[C@@H](C)CC)C(=O)N[C@@H](Cc1c[nH]c2ccccc12)C(=O)N1CCC[C@H]1C(=O)N[C@@H](CC(C)C)C(=O)N[C@@H](C)C(=O)N[C@@H](CC(C)C)C(=O)NCC(=O)N[C@@H](C)C(=O)N[C@@H](CC(C)C)C(=O)N[C@@H](CCCCN)C(=O)N[C@@H](CC(N)=O)C(=O)N[C@@H](CC(C)C)C(=O)N[C@H](C(=O)N[C@@H](CCCCN)C(=O)O)[C@@H](C)CC [KIFGAIWPLALGALKNLIK]
MIC (Methylobacterium sp.): 4 µM (≈ 8.27 µg/mL) | MIC (Xanthomonas citri): 2 µM (≈ 4.13 µg/mL) | MIC [7]: 4 µM (≈ 8.27 µg/mL)

CC(C)C[C@H](NC(=O)[C@@H](NC(=O)[C@H](C)NC(=O)[C@H](Cc1c[nH]c2ccccc12)NC(=O)[C@H](CCCN=C(N)N)NC(=O)CNC(=O)CNC(=O)[C@H](CCCN=C(N)N)NC(=O)[C@@H](NC(=O)[C@H](CCCN=C(N)N)NC(=O)[C@H](Cc1c[nH]c2ccccc12)NC(=O)[C@H](Cc1ccc(O)cc1)NC(=O)[C@H](Cc1ccc(O)cc1)NC(=O)[C@H](CCCCN)NC(=O)[C@H](CCC(N)=O)NC(=O)[C@@H](N)CC(C)C)C(C)C)C(C)C)C(=O)N[C@@H](CO)C(=O)O [LQKYYWRVRGGRWAVLS]
MIC [8]: ≥ 140 µM | MIC [9]: ≥ 140 µM | MIC [10]: ≥ 140 µM | MIC [11]: 70.1 µM (≈ 150 µg/mL) | MIC [12]: ≥ 140 µM
